From the supplement of paper PMC10307832

Legend:
Assay in all cases: relative viability (nuclei count vs DMSO), 5 days (fraction); higher = more cells survive
Metformin + Lapatinib = compound: CN(C)C(=N)NC(=N)N [Metformin] + CS(=O)(=O)CCNCc1ccc(-c2ccc3ncnc(Nc4ccc(OCc5cccc(F)c5)c(Cl)c4)c3c2)o1 [Lapatinib] (partner 2 µM)
Procedure, shortened: (§1)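 Lung cancer cell lines were seeded in 1536-well plates and dosed by pin tool the next day, with either a single drug or a fixed anchor-drug dose combined with five library-drug doses (not always all listed) spaced in √10 steps. Five days later, one step fixed the cells and stained their nuclei (final 0.05% Triton X-100, 1% formaldehyde, 1 ug/ml Hoechst), and nuclei were counted on 4× images. Relative viability is the nuclei count in treated wells divided by the count in vehicle wells, and each value is the median of duplicate plates.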

Apatinib + OSI-027 = compound: N#CC1(c2ccc(NC(=O)c3cccnc3NCc3ccncc3)cc2)CCCC1 [Apatinib] + COc1cccc2cc(-c3nc([C@H]4CC[C@H](C(=O)O)CC4)n4ncnc(N)c34)[nH]c12 [OSI-027] (partner 0.5 µM)
Procedure, shortened: as §1

Apatinib + AZD7762 = compound: N#CC1(c2ccc(NC(=O)c3cccnc3NCc3ccncc3)cc2)CCCC1 [Apatinib] + NC(=O)Nc1cc(-c2cccc(F)c2)sc1C(=O)N[C@H]1CCCNC1 [AZD7762] (partner 0.2 µM)
Procedure, shortened: as §1

Metformin + Foretinib = compound: CN(C)C(=N)NC(=N)N [Metformin] + COc1cc2c(Oc3ccc(NC(=O)C4(C(=O)Nc5ccc(F)cc5)CC4)cc3F)ccnc2cc1OCCCN1CCOCC1 [Foretinib] (partner 0.25 µM)
Procedure, shortened: as §1

| Cell Line | relative viability (Metformin + Lapatinib; first compound 10 µM) | relative viability (Metformin + Lapatinib; first compound 31.62 µM) | relative viability (Metformin + Lapatinib; first compound 100 µM) | relative viability (Metformin + Lapatinib; first compound 316.23 µM) | relative viability (Metformin + Lapatinib; first compound 1000 µM) | relative viability (Apatinib + OSI-027; first compound 0.08 µM) | relative viability (Apatinib + OSI-027; first compound 0.253 µM) | relative viability (Apatinib + OSI-027; first compound 0.8 µM) | relative viability (Apatinib + OSI-027; first compound 2.53 µM) | relative viability (Apatinib + OSI-027; first compound 8 µM) | relative viability (Apatinib + AZD7762; first compound 0.08 µM) | relative viability (Apatinib + AZD7762; first compound 0.253 µM) | relative viability (Apatinib + AZD7762; first compound 0.8 µM) | relative viability (Apatinib + AZD7762; first compound 2.53 µM) | relative viability (Apatinib + AZD7762; first compound 8 µM) | relative viability (Metformin + Foretinib; first compound 10 µM) | relative viability (Metformin + Foretinib; first compound 31.62 µM) | relative viability (Metformin + Foretinib; first compound 100 µM) | relative viability (Metformin + Foretinib; first compound 316.23 µM) | relative viability (Metformin + Foretinib; first compound 1000 µM) |
| --- | --- | --- | --- | --- | --- | --- | --- | --- | --- | --- | --- | --- | --- | --- | --- | --- | --- | --- | --- | --- |
| PC-14 | 0.432 | 0.438 | 0.37 | 0.36 | 0.372 | 0.805 | 0.956 | 0.596 | 0.748 | 0.602 | 0.359 | 0.348 | 0.258 | 0.167 | 0.267 | 0.795 | 1.08 | 0.879 | 0.932 | 1 |
| NCI-H650 | 1.22 | 1.04 | 0.887 | 0.799 | 0.942 | 0.493 | 0.491 | 0.446 | 0.381 | 0.388 | 0.906 | 1.05 | 1.12 | 0.743 | 0.694 | 1.18 | 1.31 | 1.23 | 1.24 | 1.18 |
| NCI-H2405 | 0.932 | 1.13 | 1.01 | 1.07 | 0.556 | 0.621 | 0.579 | 0.714 | 0.604 | 0.626 | 0.773 | 0.859 | 0.713 | 0.55 | 0.609 | 0.936 | 1.06 | 1.11 | 1.01 | 1.09 |
| H3255 | 0.254 | 0.227 | 0.291 | 0.29 | 0.211 | 0.551 | 0.569 | 0.539 | 0.51 | 0.535 | 0.824 | 0.882 | 0.851 | 0.736 | 0.718 | 0.863 | 0.96 | 0.91 | 0.747 | 0.877 |
| NCI-H1755 | 0.763 | 0.956 | 1.02 | 0.929 | 0.99 | 0.838 | 0.729 | 0.699 | 0.672 | 0.523 | 0.442 | 0.449 | 0.366 | 0.375 | 0.335 | 0.757 | 0.789 | 0.778 | 0.742 | 0.816 |
| EPLC-272H | 1.22 | 1.09 | 1.09 | 1.15 | 1.05 | 0.308 |  | 0.268 | 0.246 | 0.247 | 0.334 | 0.24 | 0.206 | 0.174 | 0.17 | 0.864 | 0.909 | 0.978 | 0.784 | 1.09 |
| NCI-H23 | 0.998 | 1.14 | 1.05 | 0.762 | 1.11 | 0.637 | 0.658 | 0.535 | 0.46 | 0.377 | 0.275 | 0.193 | 0.21 | 0.134 | 0.108 | 0.925 | 1.1 | 1.01 | 0.953 | 1.08 |
| NCI-H1944 | 0.686 | 0.961 | 0.931 | 0.751 | 0.886 | 0.419 | 0.387 | 0.361 | 0.378 | 0.405 | 0.498 | 0.564 | 0.477 | 0.316 | 0.285 | 0.881 | 0.995 | 1.03 | 0.924 | 0.996 |
| NCI-H2170 | 0.273 | 0.247 | 0.302 | 0.288 | 0.288 | 0.803 | 0.752 | 0.692 | 0.594 | 0.674 | 0.871 | 0.901 | 0.719 | 0.721 | 0.706 | 0.951 | 1.02 | 0.915 | 0.95 | 0.965 |
| HCC-15 | 0.54 | 0.908 | 0.891 | 0.785 | 0.913 | 0.719 | 0.691 | 0.658 | 0.628 | 0.509 | 1.13 | 1.23 | 1.12 | 1.15 | 1.05 |  | 1.06 | 1.1 | 0.905 | 0.911 |
| NCI-H1666 | 0.57 | 0.557 | 0.601 | 0.535 | 0.67 | 0.883 | 0.826 | 0.797 | 0.73 | 0.755 | 0.828 | 0.871 | 0.776 | 0.769 | 0.746 | 1.03 | 1.03 | 1.08 | 1.03 | 1.09 |
| HCC-78 | 0.494 | 1.05 | 0.863 | 0.933 | 0.969 | 0.355 | 0.298 | 0.384 | 0.34 | 0.332 | 0.553 | 0.766 | 0.666 | 0.539 | 0.638 | 0.752 | 0.674 | 0.894 | 0.662 | 0.79 |
| A-427 | 0.943 | 1.06 | 1.04 | 0.994 | 0.951 | 0.52 | 0.465 | 0.479 | 0.476 | 0.404 | 0.71 | 0.761 | 0.665 | 0.572 | 0.527 | 1.12 | 1.2 | 0.954 | 0.981 | 1.23 |
| NCI-H596 | 1.18 | 1.22 | 1.07 | 1.06 | 1.2 | 0.795 | 0.656 | 0.653 | 0.486 | 0.545 | 1.09 | 1.04 | 0.863 | 0.944 | 0.901 | 0.832 | 0.855 | 0.85 | 0.861 | 0.89 |
| EMC-BAC-2 | 0.886 | 0.951 | 0.891 | 0.843 | 0.925 | 0.413 | 0.389 | 0.357 | 0.338 | 0.291 | 1.1 | 1.07 | 1.06 | 0.91 | 0.998 | 1.03 | 1.1 | 1.09 | 0.976 | 1.09 |
| NCI-H2126 | 0.678 | 0.774 | 0.771 | 0.787 | 0.749 | 0.816 | 0.641 | 0.666 | 0.585 | 0.664 | 1.02 | 0.924 | 0.9 | 0.973 | 0.933 | 1.12 | 1.18 | 1.22 | 0.862 | 1.15 |
